Source: PMC11784839, “Monoaminergic neurotransmitters are bimodal effectors of tau aggregation” (Science Advances, 2025)

Target: tau (Homo sapiens, UniProt P10636)
Assay: MCE Phenols Library screening, tau biosensor cell seeding assay (AvZ)
Assay type: cell-based
Conditions: for Z repl 1 / Z Repl 2: Z score; for Z repl 1 / raw data 1: replicate 1; for Z Repl 2 / raw data 2: replicate 2; for AvZ (average z score of seeding, SDs from the mean level of seeding): 10 μM phenol in cell cultures, AD brain homogenate preincubated 16 hours, two biological replicates, positive = catalyzes seeding, negative = inhibits
[1] = average Z score of two replicates, Phenols Library screen
[2] = average Z score of the two replicates, MCE Phenols Library screen
[3] = average puncta of the two replicates
[4] = average Z score of the two replicates, tau seeding
[5] = average Z score of the two replicates, tau biosensor seeding, MCE Phenols Library screen

tau, sequence (P10636 623-695 limits assumed): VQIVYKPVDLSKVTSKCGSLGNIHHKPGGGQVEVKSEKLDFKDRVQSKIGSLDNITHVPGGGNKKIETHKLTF

SMILES	Z repl 1	Z Repl 2	av Z [1]	av puncta (average of raw data 1 and 2)	raw data 1 (puncta)	raw data 2 (puncta)	av Z [2]	av puncta [3]	av Z [4]	av Z [5]	raw data 1 (raw puncta)	raw data 2 (raw puncta)	AvZ (average z score of seeding, SDs from the mean level of seeding)
COc1cc(-c2cc(=O)c3c(O)c(OC)c(O)cc3o2)cc(O)c1OC	0.062	-0.242	-0.09	18635	27088.2	10181.7	–	–	–	–	–	–	–
O=c1c(O[C@@H]2O[C@H](CO)[C@@H](O)[C@H](O)[C@H]2O)c(-c2ccc(O)c(O)c2)oc2cc(O[C@@H]3O[C@H](CO[C@@H]4O[C@H](CO)[C@@H](O)[C@H](O)[C@H]4O)[C@@H](O)[C@H](O)[C@H]3O)cc(O)c12	-0.562	-0.434	–	–	19599.6	8130.05	-0.498	13864.9	–	–	–	–	–
O=C(O)CC(=O)OC[C@H]1O[C@@H](Oc2c(-c3ccc(O)c(O)c3)oc3cc(O)cc(O)c3c2=O)[C@H](O)[C@@H](O)[C@@H]1O	-0.599	-0.958	–	10843.5	19152.5	2534.57	-0.779	–	–	–	–	–	–
COc1cc([C@@H]2OC[C@@H]3[C@H]2CO[C@H]3c2cc(OC)c(O[C@@H]3O[C@H](CO)[C@@H](O)[C@H](O)[C@H]3O[C@@H]3OC[C@](O)(CO)[C@H]3O)c(OC)c2)cc(OC)c1O	0.189	0.95	–	25767.5	28623.9	22911	–	–	0.57	–	–	–	–
OC[C@H]1O[C@@H](Oc2cc(O)cc(/C=C/c3ccc(O)cc3)c2)[C@H](O)[C@@H](O)[C@@H]1O (mixture of isomers) [(E/Z)-Polydatin]	0.505	-0.119	–	21956.3	32412.5	11500.1	–	–	0.193	–	–	–	–
CCC1(O)C(=O)OCc2c1cc1n(c2=O)Cc2cc3cc(O)ccc3nc2-1 (racemic) [(±)-10-Hydroxycamptothecin]	2.809	1.992	–	47054	60066.9	34041	–	–	–	2.4	–	–	–
Cl.NCC(O)c1ccc(O)c(O)c1 (racemic) [DL-Norepinephrine (hydrochloride)]	–	–	–	22344.8	29267.2	15422.3	–	–	–	–	–	–	–
Cc1c(C)c2c(c(C)c1O)CCC(C)(CCCC(C)CCCC(C)CCCC(C)C)O2 (racemic) [DL-alpha-Tocopherol]	-0.849	-0.142	–	–	16151.3	11251.7	-0.496	13701.5	–	–	–	–	–
COc1cc(/C=C/C(=O)O[C@H]2C[C@@](O)(C(=O)O)C[C@H](O)[C@@H]2O)ccc1O (stereo in doubt) [3-Feruloylquinic acid]	0.043	-0.387	-0.172	17749.2	26861	8637.46	–	–	–	–	–	–	–
O=C(O[C@H](Cc1ccc(O)c(O)c1)C(=O)O)C1=Cc2cc(O)c(O)cc2[C@H](c2ccc(O)c(O)c2)[C@H]1C(=O)OC(Cc1ccc(O)c(O)c1)C(=O)O (stereo in doubt) [Rabdosiin]	-0.457	-0.234	–	–	–	–	-0.346	15561.2	–	–	20858.2	10264.2	–
CC=C1[C@H](O[C@@H]2O[C@H](CO)[C@@H](O)[C@H](O)[C@H]2O)OC=C(C(=O)OC)[C@H]1CC(=O)OC[C@H]1O[C@@H](OCCc2ccc(O)cc2)[C@H](O)[C@@H](O)[C@@H]1O (stereo in doubt) [Specneuzhenide]	-0.904	0.064	–	–	–	–	-0.42	14474.2	–	–	15493.9	13454.5	–
O=C(OC[C@H]1OC(OC(=O)c2cc(O)c(O)c(O)c2)[C@H](OC(=O)c2cc(O)c(O)c(O)c2)[C@@H](OC(=O)c2cc(O)c(O)c(O)c2)[C@@H]1O)c1cc(O)c(O)c(O)c1 (stereo partly drawn) [1,2,3,6-Tetragalloylglucose]	-1.751	-1.021	–	3594.24	5324.12	1864.38	-1.386	–	–	–	–	–	–
Oc1ccc(O)c(O)c1 [1,2,4-Trihydroxybenzene]	-1.617	-1.152	–	3698	6931.48	464.513	–	–	–	–	–	–	-1.385
O=C(C=Cc1ccc(O)c(O)c1)OC1CC(OC(=O)C=Cc2ccc(O)c(O)c2)(C(=O)O)CC(O)C1O (stereo not drawn) [1,3-Dicaffeoylquinic acid]	-1.077	-0.588	–	9954.06	13417.7	6490.43	-0.832	–	–	–	–	–	–
Oc1cccc2ccccc12 [1-Naphthol]	1.606	0.927	–	34150.6	45632.1	22669.1	–	–	–	1.267	–	–	–
O=C(O[C@H]1[C@H](Oc2c(-c3ccc(O)c(O)c3)oc3cc(O)cc(O)c3c2=O)O[C@H](CO)[C@H](O)[C@@H]1O)c1cc(O)c(O)c(O)c1 [2""-O-Galloylhyperin]	-0.93	-0.817	–	9615.07	15187.3	4042.85	-0.873	–	–	–	–	–	–
CC(=O)c1ccc(C)cc1O [2'-Hydroxy-4'-methylacetophenone]	0.483	-0.487	–	19854.9	32144.5	7565.33	–	–	–	–	–	–	-0.002
O=C(O)c1ccc(O)c(O)c1O [2,3,4-Trihydroxybenzoic acid]	-0.335	-0.39	–	–	–	–	–	15461.1	–	–	22324.8	8597.33	-0.363
COc1ccc(C(C)=O)c(O)c1O [2,3-Dihydroxy-4-methoxyacetophenone]	0.385	-0.124	–	21205.2	30969.9	11440.6	–	–	–	–	–	–	0.13
O=C(O)c1ccc(O)cc1O [2,4-Dihydroxybenzoic acid]	0.635	-0.383	–	21320.5	33969.7	8671.41	–	–	–	–	–	–	0.126
CC(=O)c1cc(O)ccc1O [2,5-Dihydroxyacetophenone]	-0.264	-0.663	–	–	23175.8	5682.84	–	14429.3	–	–	–	–	-0.464
Oc1c(Br)cccc1Br [2,6-Dibromophenol]	-0.611	0.25	–	17229.5	19019.6	15439.4	–	–	–	–	–	–	-0.18
O=C(O)c1c(O)cccc1O [2,6-Dihydroxybenzoic acid]	0.475	0.955	–	27508.9	32047.3	22970.5	–	–	–	–	–	–	0.715
Cc1cc(O)cc(C)c1O [2,6-Dimethylhydroquinone]	0.44	-0.434	–	19881.8	31637.3	8126.32	–	–	–	–	–	–	0.003
CCc1cccc(C)c1O [2-Ethyl-6-methylphenol]	0.346	-0.011	–	21574.5	30502.1	12646.9	–	–	–	–	–	–	0.167
